The values below come from ChEMBL document CHEMBL1123683 (J Med Chem, 1987).

Assay [1] deals with Prostaglandin G/H synthase 1 (Ovis aries) (UniProt P05979). Particulars: at 500 µM.
Assay [2] shares this target. In words: Inhibition of microsomal PGH synthase isolated from sheep seminal vesicles (SSV) estimated as rate of oxygen consumption in presence of 500 uM of the compound; Compound was found to be insoluble.
Assay [3] shares this target. Nature of the assay: Inhibition of microsomal PGH synthase isolated from sheep seminal vesicles (SSV) estimated as rate of oxygen consumption in presence of 100 uM of the compound.
For assay [4] the target is unchanged. Nature of the assay: Inhibition of PGH synthase in sheep seminal vesicle microsomes.
Assay [5] has the same target. Nature of the assay: Inhibition of microsomal PGH synthase isolated from sheep seminal vesicles (SSV) estimated as rate of oxygen consumption in presence of 100 uM of the compound. Also on record: scale not given: the % may be the effect or the level left.
The target is the same in assay [6]. In words: Inhibition of microsomal PGH synthase isolated from sheep seminal vesicles (SSV) estimated as rate of oxygen consumption in presence of 500 uM of the compound. Also on record: scale not given: the % may be the effect or the level left.

SMILES strings stand for the structures.

Sequence of Prostaglandin G/H synthase 1 (Ovis aries) (P05979 whole entry, looked up): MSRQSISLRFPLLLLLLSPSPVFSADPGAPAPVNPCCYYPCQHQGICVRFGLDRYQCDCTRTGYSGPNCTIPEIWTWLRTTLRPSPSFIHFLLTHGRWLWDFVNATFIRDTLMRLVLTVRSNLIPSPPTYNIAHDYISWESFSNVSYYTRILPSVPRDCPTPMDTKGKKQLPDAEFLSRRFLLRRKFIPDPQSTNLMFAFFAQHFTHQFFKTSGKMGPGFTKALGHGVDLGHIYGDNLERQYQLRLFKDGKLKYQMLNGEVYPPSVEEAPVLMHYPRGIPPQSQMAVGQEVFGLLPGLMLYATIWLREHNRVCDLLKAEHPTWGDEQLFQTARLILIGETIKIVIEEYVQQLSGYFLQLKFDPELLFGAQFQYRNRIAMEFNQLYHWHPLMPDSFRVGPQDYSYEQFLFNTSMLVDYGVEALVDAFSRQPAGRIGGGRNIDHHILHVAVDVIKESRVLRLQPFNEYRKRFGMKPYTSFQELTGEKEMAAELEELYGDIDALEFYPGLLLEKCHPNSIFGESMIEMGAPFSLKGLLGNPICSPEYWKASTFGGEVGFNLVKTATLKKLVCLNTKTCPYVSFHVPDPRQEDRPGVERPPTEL

The compound `O=C(CC(=O)Nc1cccc(O)c1)Nc1cccc(O)c1` came in with a Control in assay [1] of 86%.
As for `CCCCC(C(=O)Nc1ccccc1)C(=O)Nc1ccccc1`, the Control entry in assay [2] is listed as “Insoluble”. In assay [3], the Oxygen consumption rate, % of control is 105%.
For `O=C(CC(=O)Nc1ccc(Cl)cc1)Nc1ccc(Cl)cc1`, the concentration for half-maximal inhibition (IC50) in assay [4] came to 420 µM. Further, in assay [1], the Control was found to be 48%. For the same compound, the Oxygen consumption rate, % of control in assay [3] is 64%.
Take `CCCCC(C(=O)Nc1ccc([N+](=O)[O-])cc1)C(=O)Nc1ccc([N+](=O)[O-])cc1`: the Control is 126% in assay [5] and “Insoluble” in assay [6].
For the compound `O=C(CC(=O)Nc1ccc([N+](=O)[O-])cc1)Nc1ccc([N+](=O)[O-])cc1`, the Control in assay [6] is 88%.
For the compound `CCCCC(C(=O)Nc1ccc(OC)cc1)C(=O)Nc1ccc(OC)cc1`, the Control entry in assay [2] is “Insoluble”. Also, in assay [3], the Oxygen consumption rate, % of control was 102%.
Turning to `O=C(CC(=O)Nc1ccccc1)Nc1ccccc1`, the Control in assay [5] was 65%; in assay [1], 55%.
Turning to `O=C(CCCCC(=O)Nc1ccc(O)cc1)Nc1ccc(O)cc1`, the Control in assay [5] is 67%; in assay [1], 26%. The 50% inhibitory concentration (IC50) in assay [4] is 230 µM.
Turning to `O=C(CC(=O)Nc1ccc(O)cc1)Nc1ccc(O)cc1`, half-maximal inhibition in assay [4] (IC50) was put at 190 µM. Besides, in assay [1], the Control came out at 25%. In assay [3], the Oxygen consumption rate, % of control was 67%.
On to `Cc1ccc(NC(=O)CC(=O)Nc2ccc(C)cc2)cc1`, for which the Control in assay [6] is 66%.
For `CCCCC(C(=O)Nc1ccc(O)cc1C)C(=O)Nc1ccc(O)cc1C`, the results for the Control in assay [5] and in assay [6] were 57% and 31%, respectively. This compound returned an IC50 in assay [4] of 150 µM.
Consider `COc1ccc(NC(=O)CC(=O)Nc2ccc(OC)cc2)cc1`, for which the Control entry in assay [2] is “Insoluble”. For the same compound, the Oxygen consumption rate, % of control in assay [3] was 78%.
For `CCCCC(C(=O)Nc1ccc(Cl)cc1)C(=O)Nc1ccc(Cl)cc1`, the Control in assay [5] was 96%; in assay [2], “Insoluble”.
`O=C(CCC(=O)Nc1ccc(O)cc1)Nc1ccc(O)cc1`: the IC50 in assay [4] stood at 240 µM. In addition, the Oxygen consumption rate, % of control in assay [3] is 79%. The Control in assay [6] is 27%.
In assay [1], `CCCCC(C(=O)Nc1ccc(C)cc1)C(=O)Nc1ccc(C)cc1` gave a Control of 97%.
For `CCCCC(C(=O)Nc1ccc(O)cc1)C(=O)Nc1ccc(O)cc1`, the results for the Control in assay [5] and in assay [1] were 76% and 36%, respectively. This compound also returned an IC50 in assay [4] of 290 µM.

In general, IC50 refers to the concentration needed to halve the response being measured.
